Values quoted from earlier work in patent US20230174656A1, “T[…] REMDESIVIR COMBINATION THERAPY FOR COVID-19 PNEUMONIA” (priority 2020, published 2023).
Like-named read-outs stand apart in the source and are kept apart here.

Experiments:
COVID-19 pneumonia = conditions: cited from earlier work
[1] = cited from earlier work; for geometric mean maximum concentration of TCZ: patients with CAR T cell induced CRS, % CV in brackets
[2] = test system: CAR T cell-induced severe or life-threatening CRS; conditions: cited from earlier work

## TCZ: recombinant humanized monoclonal IgG1κ antibody that binds to human interleukin-6 receptor (IL-6R); light and heavy chains SEQ ID NOs. 1 and 2
COVID-19 pneumonia; 10/19, fifth day after treatment
  patients in whom percentage of lymphocytes in peripheral blood returned to normal: 52.6%
COVID-19 pneumonia; 15 of 20 patients
  patients who had lowered their oxygen intake: 75.0%
COVID-19 pneumonia; 16/19
  patients in whom abnormally elevated CRP decreased significantly: 84.2%
COVID-19 pneumonia; 21 treated patients
  adverse drug reactions and subsequent pulmonary infections: No adverse drug reactions and no subsequent pulmonary infections were reported
  deaths: no deaths among the 21 treated patients
COVID-19 pneumonia; TCZ IV 400 mg plus standard of care
  fever after TCZ treatment: fever returned to normal
COVID-19 pneumonia; after TCZ treatment
  patients needing no oxygen therapy: one patient needed no oxygen therapy
COVID-19 pneumonia; after treatment
  patients with significant remission of opacities in both lungs on CT scans: 90.5%
COVID-19 pneumonia; nineteen patients, including two critical patients
  patients discharged at the time of the report: 90.5%
[1]; after the first infusion
  geometric mean maximum concentration of TCZ: 99.5 µg/mL
[1]; after the second infusion
  geometric mean maximum concentration of TCZ: 160.7 µg/mL
[1]; patients with CRS versus healthy volunteers and other patient populations
  clearance of TCZ (PK modeling analysis): faster clearance of TCZ than healthy volunteers and other patient populations
[2]; CTL019 series, 45 patients, maximum up to two doses
  patients achieving a response (afebrile and off vasopressors for at least 24 hours) within 14 days of the first dose of TCZ: 69%
[2]; CTL019 series
  median time from the first dose to response: 4 days
[2]; axicabtagene ciloleucel series, 15 patients
  patients achieving a response: 53%
[2]; axicabtagene ciloleucel series
  median time to response: 4.5 days
[2]; patients with CRS after CAR T-cell therapy
  adverse reactions attributable to TCZ: no reports of adverse reactions attributable to TCZ
